Columns and labels:
[1] = target: T1, NUP-MDSC cell lysate (Mus musculus, UniProt O70589); assay: Solvent-induced protein precipitation profiling, proteome-wide; assay type: binding; conditions: protein Cask; soluble fraction; 26 uM
T1 construct: endogenous in cells; host or cells: mouse NUP-MDSC (lysate)
T1 sequence (O70589 1-926): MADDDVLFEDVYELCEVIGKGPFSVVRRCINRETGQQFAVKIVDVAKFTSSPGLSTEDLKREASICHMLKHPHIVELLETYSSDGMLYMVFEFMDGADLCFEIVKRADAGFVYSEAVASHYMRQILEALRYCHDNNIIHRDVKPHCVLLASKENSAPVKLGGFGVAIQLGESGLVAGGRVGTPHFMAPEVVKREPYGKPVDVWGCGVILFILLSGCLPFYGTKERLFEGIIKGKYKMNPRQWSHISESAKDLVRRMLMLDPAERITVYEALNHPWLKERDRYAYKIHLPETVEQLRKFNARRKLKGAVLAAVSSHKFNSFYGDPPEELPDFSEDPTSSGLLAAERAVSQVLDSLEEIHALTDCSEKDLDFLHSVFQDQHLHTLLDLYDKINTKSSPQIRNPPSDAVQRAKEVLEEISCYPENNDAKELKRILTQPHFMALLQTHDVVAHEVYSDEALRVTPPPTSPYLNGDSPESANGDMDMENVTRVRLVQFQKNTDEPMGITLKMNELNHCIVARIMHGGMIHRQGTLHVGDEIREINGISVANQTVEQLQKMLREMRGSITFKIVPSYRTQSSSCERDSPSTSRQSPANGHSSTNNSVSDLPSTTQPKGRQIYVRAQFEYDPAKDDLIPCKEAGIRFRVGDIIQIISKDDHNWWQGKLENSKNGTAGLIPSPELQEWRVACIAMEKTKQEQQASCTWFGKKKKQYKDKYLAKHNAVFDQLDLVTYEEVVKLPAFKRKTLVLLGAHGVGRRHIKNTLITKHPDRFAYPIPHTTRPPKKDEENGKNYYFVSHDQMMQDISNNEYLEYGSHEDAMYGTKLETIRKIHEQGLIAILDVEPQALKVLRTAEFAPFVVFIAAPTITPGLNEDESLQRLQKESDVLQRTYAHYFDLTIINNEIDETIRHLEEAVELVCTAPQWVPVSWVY
Experimental: (§1) NUP-MDSCs were differentiated as described above, washed twice with PBS, resuspended in lysis buffer (PBS, 0.4% IGEPAL CA-630, 1× Halt Protease-Inhibitor Cocktail (Thermo Fisher Scientific)), and subjected to three freeze-thaw cycles. The lysate was cleared by centrifugation for 30 min at 18,000g and 4 °C. The soluble fraction was diluted to 4 mg/ml and allowed to warm up to room temperature. Equal volumes of lysate were treated in triplicates with 100 x compound stock solutions (in DMSO) or DMSO for 15 min at room temperature (final concentrations: cmpd 2: 7.8 μM (3xEC50) and 26 μM (10xEC50), cmpd 3: 10 μM and 26 μM). Similar to a previous study ([46]), each sample was divided into eight aliquots to be denatured using different concentrations (8%, 10%, 12%, 14%, 16%, 18%, 20%, 22%) of acetone:ethanol:acetic acid (50:50:0.1) in water for 20 min at 37 °C with vigorous shaking. Aggregated proteins were separated by centrifugation for 45 min at 4 °C and 3900g. Next, equal amounts of the soluble fraction were pooled for subsequent proteomic analysis.
(§2) Methanol was added to 100 μg of the pooled supernatants to a final concentration of 70% and further processed according to the R2P1 protocol ([47]), with tryptic digestion performed in 50 mM Hepes (pH 8.5). Elution fractions were combined and dried by vacuum centrifugation. Dried samples were resuspended in deionized water, and TMT labeling was performed according to Zecha et al. ([35]). All 15 samples (5 treatment conditions in triplicates) were labeled with one TMTpro plex. Next, equal amounts were pooled and desalted by C18 solid-phase extraction cartridges (Sep-Pak Vac 1 cc C18 Cartridges, Waters Corp). Desalted peptides were chromatographically separated via basic reversed phase chromatography as previously described ([36]) into 24 fractions, dried down, and stored at −20 °C until further analysis.
(§3) Peptides were analyzed via LC-MS/MS on a Vanquish Neo UHPLC coupled to an Orbitrap Eclipse Tribrid mass spectrometer (Thermo Fisher Scientific). […] The mass spectrometer was operated in data-dependent mode and positive ionization mode. Samples were measured, employing a MS3 method with real-time search. […] Iontrap-MS2 spectra for peptide identification were acquired using HCD fragmentation with 35% NCE, an isolation window of 0.7 m/z, an AGC target value of 5e4 charges, and a maxIT of 35 ms. To obtain quantitative information on TMT reporter ions, each peptide precursor was fragmented again as for MS2 analysis followed by synchronous selection of the up to 10 most intense peptide fragments in the iontrap ([37]) and further fragmentation via HCD using an NCE of 55%. For the MS3 scan, real-time search was enabled to only trigger a MS3 scan for peptides that are TMT-labeled and can be identified (searched against a mouse database, same as used for maxquant processing). The MS3 scan was recorded in the OT at 30,000 resolution (scan range 110–500 m/z, isolation window of 0.7 m/z, AGC of 2e4 charges, maxIT of 120 ms). The cycle time was set to 3 s, and the dynamic exclusion lasted for 60 s.
(§4) Raw files were searched with Maxquant (v. 2.0.3.0) against the mouse reference proteome (UP000000589, canonical, download 10/2019, 55,029 entries) with standard settings for reporter ion MS3 unless described otherwise ([39]). Isotope impurities of the TMT lot were specified to allow MaxQuant the automated correction of TMT intensities. […] Trypsin/P was specified as the proteolytic enzyme with up to two missed cleavage sites allowed. […]

[2] = system: NUP-MDSC cell lysate; assay: as above; assay type: binding, mouse; conditions: for log2 FC cmpd2_26uM/cmpd3_26uM: soluble fraction, 26 uM
Experimental: as §1, §2, §3, §4

Compound: CCOC(=O)c1nnn(-c2nn3nnnc3c3ccccc23)c1C [compound 2]
- log2 FC cmpd2_26uM/cmpd3_26uM [1]: 0.23
- stabilization of proteins against solvent-induced aggregation ([2]; 7.8 μM and 26 μM, vs compound 3): significant stabilization of several proteins
- log2 FC cmpd2_26uM/cmpd3_26uM ([2]; protein Magohb;Magoh): 0.25
- log2 FC cmpd2_26uM/cmpd3_26uM ([2]; protein Srcap): -0.12
